This is an account of results in patent US4772691A, “Chemically cleavable nucleotides” (The Medical College of Wisconsin, Inc., priority 1985, dated 1988).

One series deals with avidin. The following applies: compared with avidin-biotin; cited from earlier work.
Another series has as its target E. coli DNA polymerase I (Escherichia coli, UniProt P00582). The experiment in a line: nick-translation reaction, incorporation of [32P]dCTP into 145-bp DNA. The class given is biochemical. The following applies: for rate of nick-translation reaction relative to TTP: 20 μM nucleotide, relative to equal concentration of TTP. The method, then:
Nick-Translation Reactions. Nucleosome length DNA fragments [145 base pairs (bp)]were purified from monomer nucleosomes prepared by micrococcal nuclease digestion of chicken erythrocyte nuclei followed by fractionation on an agarose A-5m column (2). Four microgram aliquots of 145-bp DNA fragments in 0.1 ml of 50 mM Tris-HCl, pH 7.5/5 mM MgCl2 /50 μg of bovine serum albumin per ml were nicktranslated (3) in the presence of 20 μM dATP and dGTP, 20 μM [^32 P]dCTP (2-5 μCi/nmol; 1 Ci =37 GBq), and either dTTP, Bio-4-dUTP, or Bio-SS-dUTP as indicated. 2-Mercaptoethanol was eliminated from the nick-translation buffer to preserve the Bio-SS-dUTP. DNase I (0.01 ng per 0.1 ml of reaction mixture) was added to the reaction, which was then incubated for 5 min at 15° C. prior to the addition of E. coli DNA polymerase I (4 units per 0.1 ml of reaction mixture).
Bio-SS-dUTP Is a Substrate for E. coli DNA Polymerase. To determine whether Bio-SS-dUTP could serve as a substrate for E. coli DNA polymerase I, its incorporation into DNA in a nick-translation reaction was measured. The incorporation of [^32 P ]dCTP into purified nucleosome-length DNA fragments (145 bp) in the presence of 20 μM dATP, dGTP, dCTP, and either the normal nucleotide, TTP, or one of three biotinylated nucleotide analogs was measured. Bio-SS-dUTP was capable of supporting the nick-translation reaction at 35%-40% the rate observed with an equal concentration of TTP. […] If no TTP is present with the biotinylated nucleotides in the nick-translation reaction, the newly synthesized DNA is very heavily biotinylated. To reduce this level of modification, the nick-translation reactions can be performed in the presence of μM/10TTP/10 μM Bio-SS-dUTP.

Series [1] in a line: HPLC of Bio-SS-dUTP in presence of 2-mercaptoethanol (disulfide cleavage). It counts as physicochemical. The following applies: 5 mM 2-mercaptoethanol immediately before HPLC. The method, then:
It was not necessary to further purify the AA-dUTP by HPLC at this stage in the synthesis. Instead, 2.0 μmol of AA-dUTP in 200 μl of 0.1 M sodium borate (pH 8.5) was added directly to 2.0 μmol of sulfo-NHS-SS-biotin. The reaction was allowed to proceed at room temperature for 1 to 2 hr. The resulting Bio-SS-dUTP was purified by ion-pair reversed-phase HPLC using a Bio-Sil ODS-5S column (250×4 mm; Bio-Rad). Aliquots of the reaction (100 μl) were adjusted to 50 mM Et3 NHCO3 (pH 7.5) and 10% acetonitrile, diluted to 500 μl with the same buffer, and applied to the column at a flow rate of 0.5 ml/min (1600 psi). Bio-SS-dUTP was eluted isocratically with 50 mM Et3 NHCO3 (pH 7.5) and 10% acetonitrile. Column fractions containing Bio-SS-dUTP were pooled, rotary evaporated, resuspended in 10 mM Tris HCl (pH 7.5); and stored at -80° C. From 2.0 μmol of AA-dUTP, 1.0-1.6 μmol of Bio-SS-dUTP can be obtained by this procedure.
An identical aliquot of the Bio-SS-dUTP reaction was supplemented with 2-mercaptoethanol to a final concentration of 5 mM immediately prior to its application and chromatography on HPLC. […] Instead, there was a corresponding increase in the material eluting from the column with the solvent breakthrough (3.3 min). […]

Chain of E. coli DNA polymerase I (P00582 whole entry, the tested form may be a part): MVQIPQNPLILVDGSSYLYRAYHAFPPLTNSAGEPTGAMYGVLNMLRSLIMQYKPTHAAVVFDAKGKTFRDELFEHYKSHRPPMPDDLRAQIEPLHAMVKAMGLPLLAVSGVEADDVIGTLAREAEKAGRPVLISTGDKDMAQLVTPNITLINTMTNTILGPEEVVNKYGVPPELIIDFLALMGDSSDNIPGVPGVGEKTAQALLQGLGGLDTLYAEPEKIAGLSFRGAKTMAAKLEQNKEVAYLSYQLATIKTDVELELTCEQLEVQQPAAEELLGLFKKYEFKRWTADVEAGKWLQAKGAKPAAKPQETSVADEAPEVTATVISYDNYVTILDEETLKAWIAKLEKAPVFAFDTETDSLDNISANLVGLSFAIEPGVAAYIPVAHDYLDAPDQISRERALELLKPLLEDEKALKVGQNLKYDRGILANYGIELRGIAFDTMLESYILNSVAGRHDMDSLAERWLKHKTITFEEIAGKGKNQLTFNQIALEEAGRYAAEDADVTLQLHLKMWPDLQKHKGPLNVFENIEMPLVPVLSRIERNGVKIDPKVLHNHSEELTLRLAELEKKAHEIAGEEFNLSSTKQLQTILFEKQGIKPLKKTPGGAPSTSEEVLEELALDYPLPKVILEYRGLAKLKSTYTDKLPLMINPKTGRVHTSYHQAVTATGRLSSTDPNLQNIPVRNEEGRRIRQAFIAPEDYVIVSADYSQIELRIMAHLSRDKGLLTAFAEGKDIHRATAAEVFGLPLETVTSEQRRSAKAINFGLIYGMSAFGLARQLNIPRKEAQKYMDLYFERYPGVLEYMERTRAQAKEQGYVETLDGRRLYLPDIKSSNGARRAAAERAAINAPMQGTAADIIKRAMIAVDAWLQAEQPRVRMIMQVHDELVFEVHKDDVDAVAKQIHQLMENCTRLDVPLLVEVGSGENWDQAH

As for `N=C1N[C@H]2[C@H](CS[C@H]2CCCCC(=O)O)N1` [2-iminobiotin], the “strength of avidin-iminobiotin interaction” value with avidin was “not nearly as strong as that of avidin-biotin”.

Consider `O=C(CCCC[C@@H]1SC[C@@H]2NC(=O)N[C@@H]21)NCC=Cc1cn([C@H]2C[C@H](O)[C@@H](COP(=O)(O)OP(=O)(O)OP(=O)(O)O)O2)c(=O)[nH]c1=O` [Bio-4-dUTP, reference compound], for which the “rate of nick-translation reaction relative to TTP” value on E. coli DNA polymerase I worked out at 60%.

`O=C(CCSSCCNC(=O)CCCC[C@@H]1SC[C@@H]2NC(=O)N[C@@H]21)NCC=Cc1cn([C@H]2C[C@H](O)[C@@H](COP(=O)(O)OP(=O)(O)OP(=O)(O)O)O2)c(=O)[nH]c1=O` [Bio-SS-dUTP]: the “rate of nick-translation reaction in mixture with TTP” value on E. coli DNA polymerase I (10 μM TTP/10 μM Bio-SS-dUTP versus 20 μM TTP alone) is recorded as “only slightly slower”. Besides, the “rate of nick-translation reaction relative to TTP” value at E. coli DNA polymerase I is on record as 35%-40%. For the same molecule, the “residues incorporated per nucleosome-length fragment” value at E. coli DNA polymerase I (nick-translated with equal concentrations of TTP and Bio-SS-dUTP) is 2-5 residues per nucleosome-length fragment. The “substrate for E. coli DNA polymerase” value at E. coli DNA polymerase I (nick-translation) was “good substrate”. In series [1], the “intact compound after 2-mercaptoethanol (HPLC)” value is given as “no UV-absorbing material eluted from the column with the retention time expected for intact Bio-SS-dUTP”.
